{"source": "patent US20200038412A1", "about": "“METHODS OF TREATING ALZHEIMER'S DISEASE USING AMINOSTEROL COMPOSITIONS” (Enterin, Inc., priority 2018, published 2020)", "format_in_all_cases": "in vivo, human", "key": {"[1]": {"test_system": "patients with PD and constipation", "test": "Phase 2 trial Stage 2: adverse events", "description": "In Stage 2, 34 patients were evaluated."}, "[2]": {"test_system": "patients with PD and constipation", "test": "Phase 2 trial Stage 1: bowel (prokinetic) response to single escalating oral doses", "settings": "Stage 1, single oral dose", "description": "Following successful screening, all subjects underwent a 14-day run-in period where the degree of constipation was assessed through a validated daily log (Zinsmeister et al. 2013) establishing baseline CSBMs/week. Subjects with an average of <3 CSBMs/week proceeded to dosing.\nTolerability limits included diarrhea or vomiting."}, "[3]": {"test_system": "patients with PD and constipation", "test": "Circadian rhythm of wrist skin temperature", "settings": "for circadian rhythm of skin temperature / markers of healthy circadian function: oral, 12 evaluable patients", "description": "Assessments were made at baseline and at the end of the fixed dose and washout periods. Circadian system status was evaluated by continuously monitoring wrist skin temperature (Thermochron iButton DS1921H; Maxim, Dallas) following published procedures (Sarabia et al. 2008).\nCircadian rhythm of skin temperature was evaluable in 12 patients (i.e., those who had recordings that extended from baseline through washout). Circadian system functionality was evaluated by continuously monitoring wrist skin temperature using a temperature sensor (Thermochron iButton DS1921H; Maxim, Dallas, Tex.) (Sarabia et al. 2008). A nonparametric analysis was performed for each participant to characterize DST as previously described (Sarabia et al. 2008; Ortiz-Tudela et al. 2010).\nBriefly, this analysis includes the following parameters: (i) the inter-daily stability (the constancy of 24-hour rhythmic pattern over days, IS); (ii) intra-daily variability (rhythm fragmentation, IV); (iii) average of 10-minute intervals for the 10 hours with the minimum temperature (L10); (iv) average of 10-minute intervals for the 5 hours with the maximum temperature (M5) and the relative amplitude (RA), which was determined by the difference between M5 and L10, divided by the sum of both. Finally, the Circadian Function Index (CFI) was calculated by integrating IS, IV, and RA. Consequently, CFI is a global measure that oscillates between 0 for the absence of circadian rhythmicity and 1 for a robust circadian rhythm (Ortiz-Tudela et al. 2010)."}}, "note": "“Also recorded” adds a separate entry of the source."}
{"smiles": "CC(C)[C@@H](CC[C@@H](C)[C@H]1CC[C@H]2[C@@H]3[C@H](O)C[C@H]4C[C@@H](NCCCNCCCCN)CC[C@]4(C)[C@H]3CC[C@]12C)OS(=O)(=O)O", "note": "(single isomer, unassigned) [squalamine (ENT-01), squalamine]", "values": [{"measurement": "AEs confined to the GI tract", "setting": "[1]; Stage 2", "result": 63, "unit": "%"}, {"measurement": "Diarrhea (common adverse events by dose)", "setting": "[1]; Stage 2, 75 mg", "result": 7}, {"measurement": "Dizziness, lightheadedness included (common adverse events by dose)", "setting": "[1]; Stage 2, 75 mg", "result": 8}, {"measurement": "Nausea (common adverse events by dose)", "setting": "[1]; Stage 2, 75 mg", "result": 3}, {"measurement": "Diarrhea (common adverse events by dose)", "setting": "[1]; Stage 2, 100 mg", "result": 10}, {"measurement": "Dizziness, lightheadedness included (common adverse events by dose)", "setting": "[1]; Stage 2, 100 mg", "result": 7}, {"measurement": "Nausea (common adverse events by dose)", "setting": "[1]; Stage 2, 100 mg", "result": 12}, {"measurement": "Diarrhea (common adverse events by dose)", "setting": "[1]; Stage 2, 125 mg", "result": 3}, {"measurement": "Dizziness, lightheadedness included (common adverse events by dose)", "setting": "[1]; Stage 2, 125 mg", "result": 8}, {"measurement": "Nausea (common adverse events by dose)", "setting": "[1]; Stage 2, 125 mg", "result": 4}, {"measurement": "Diarrhea (common adverse events by dose)", "setting": "[1]; Stage 2, 150 mg", "result": 2}, {"measurement": "Dizziness, lightheadedness included (common adverse events by dose)", "setting": "[1]; Stage 2, 150 mg", "result": 2}, {"measurement": "Nausea (common adverse events by dose)", "setting": "[1]; Stage 2, 150 mg", "result": 11}, {"measurement": "Diarrhea (common adverse events by dose)", "setting": "[1]; Stage 2, 175 mg", "result": 1}, {"measurement": "Dizziness, lightheadedness included (common adverse events by dose)", "setting": "[1]; Stage 2, 175 mg", "result": 0}, {"measurement": "Nausea (common adverse events by dose)", "setting": "[1]; Stage 2, 175 mg", "result": 12}, {"measurement": "Diarrhea (common adverse events by dose)", "setting": "[1]; Stage 2, 200 mg", "result": 3}, {"measurement": "Nausea (common adverse events by dose)", "setting": "[1]; Stage 2, 200 mg", "result": 6}, {"measurement": "Diarrhea (common adverse events by dose)", "setting": "[1]; Stage 2, 225 mg", "result": 3}, {"measurement": "Nausea (common adverse events by dose)", "setting": "[1]; Stage 2, 225 mg", "result": 1}, {"measurement": "Diarrhea (common adverse events by dose)", "setting": "[1]; Stage 2, 250 mg", "result": 2}, {"measurement": "patients with diarrhea", "setting": "[1]; Stage 2, 15/34 patients", "result": 44, "unit": "%"}, {"measurement": "patients with nausea", "setting": "[1]; Stage 2, 18/34 patients", "result": 52.9, "unit": "%"}, {"measurement": "Abdominal pain, Mild", "setting": "[1]; Stage 2, 34 dosed", "result": "4 (11.7) n, %"}, {"measurement": "Abdominal pain, Moderate", "setting": "[1]; Stage 2, 34 dosed", "result": "2 (5.8) n, %"}, {"measurement": "Blood in urine, Mild", "setting": "[1]; Stage 2, 34 dosed", "result": "0 n, %"}, {"measurement": "Blood in urine, Moderate", "setting": "[1]; Stage 2, 34 dosed", "result": "0 n, %"}, {"measurement": "Diarrhea, Mild", "setting": "[1]; Stage 2, 34 dosed", "result": "12 (35) n, %"}, {"measurement": "Diarrhea, Moderate", "setting": "[1]; Stage 2, 34 dosed", "result": "2 (5.8) n, %"}, {"measurement": "Diarrhea, Severe", "setting": "[1]; Stage 2, 34 dosed", "result": "1 (2.9) n, %"}, {"measurement": "Difficulty falling asleep, Mild", "setting": "[1]; Stage 2, 34 dosed", "result": "1 (3) n, %"}, {"measurement": "Difficulty falling asleep, Moderate", "setting": "[1]; Stage 2, 34 dosed", "result": "0 n, %"}, {"measurement": "Dizziness, Mild", "setting": "[1]; Stage 2, 34 dosed", "result": "7 (20.5) n, %"}, {"measurement": "Dizziness, Moderate", "setting": "[1]; Stage 2, 34 dosed", "result": "1 (2.9) n, %"}, {"measurement": "Eye infection, Mild", "setting": "[1]; Stage 2, 34 dosed", "result": "1 (3) n, %"}, {"measurement": "Eye infection, Moderate", "setting": "[1]; Stage 2, 34 dosed", "result": "0 n, %"}, {"measurement": "Flatulence, Mild", "setting": "[1]; Stage 2, 34 dosed", "result": "1 (3) n, %"}, {"measurement": "Flatulence, Moderate", "setting": "[1]; Stage 2, 34 dosed", "result": "0 n, %"}, {"measurement": "Headache, Mild", "setting": "[1]; Stage 2, 34 dosed", "result": "3 (8.8) n, %"}, {"measurement": "Headache, Moderate", "setting": "[1]; Stage 2, 34 dosed", "result": "0 n, %"}, {"measurement": "Increased urinary frequency, Mild", "setting": "[1]; Stage 2, 34 dosed", "result": "2 (5.8) n, %"}, {"measurement": "Increased urinary frequency, Moderate", "setting": "[1]; Stage 2, 34 dosed", "result": "0 n, %"}, {"measurement": "Loss of appetite, Mild", "setting": "[1]; Stage 2, 34 dosed", "result": "0 n, %"}, {"measurement": "Loss of appetite, Moderate", "setting": "[1]; Stage 2, 34 dosed", "result": "0 n, %"}, {"measurement": "Nausea, Mild", "setting": "[1]; Stage 2, 34 dosed", "result": "18 (52) n, %"}, {"measurement": "Nausea, Moderate", "setting": "[1]; Stage 2, 34 dosed", "result": "1 (2.9) n, %"}, {"measurement": "Skin lesions-rash, Mild", "setting": "[1]; Stage 2, 34 dosed", "result": "3 (8.8) n, %"}, {"measurement": "Skin lesions-rash, Moderate", "setting": "[1]; Stage 2, 34 dosed", "result": "0 n, %"}, {"measurement": "Urinary retention, Mild", "setting": "[1]; Stage 2, 34 dosed", "result": "1 (3) n, %"}, {"measurement": "Urinary retention, Moderate", "setting": "[1]; Stage 2, 34 dosed", "result": "0 n, %"}, {"measurement": "Urinary tract infection, Mild", "setting": "[1]; Stage 2, 34 dosed", "result": "1 (3) n, %"}, {"measurement": "Urinary tract infection, Moderate", "setting": "[1]; Stage 2, 34 dosed", "result": "2 (5.8) n, %"}, {"measurement": "Vomiting, Mild", "setting": "[1]; Stage 2, 34 dosed", "result": "2 (5.8) n, %"}, {"measurement": "Vomiting, Moderate", "setting": "[1]; Stage 2, 34 dosed", "result": "0 n, %"}, {"measurement": "Worsening acid reflux, Mild", "setting": "[1]; Stage 2, 34 dosed", "result": "4 (11.7) n, %"}, {"measurement": "Worsening acid reflux, Moderate", "setting": "[1]; Stage 2, 34 dosed", "result": "0 n, %"}, {"measurement": "Worsening hemorrhoid, Mild", "setting": "[1]; Stage 2, 34 dosed", "result": "1 (3) n, %"}, {"measurement": "Worsening hemorrhoid, Moderate", "setting": "[1]; Stage 2, 34 dosed", "result": "0 n, %"}, {"measurement": "patients terminated prior to completion because of recurrent dizziness", "setting": "[1]; Stage 2, two patients", "result": 5.8, "unit": "%"}, {"measurement": "Lower GI bleed, Severe", "setting": "[1]; Stage 2, colonic diverticulosis, polyp, patient on aspirin, Plavix and naproxen, unrelated to ENT-01", "result": "1 (2.5) n, %"}, {"measurement": "cumulative response rate (CSBM within 24 hours of dosing)", "setting": "[2]; 25 mg", "result": 25, "unit": "%"}, {"measurement": "cumulative response rate (CSBM within 24 hours of dosing)", "setting": "[2]; 200 mg (maximum)", "result": 80, "unit": "%"}, {"measurement": "relative amplitude (RA)", "setting": "[3]; fixed dose vs baseline, p=0.001", "result": "increasing"}, {"measurement": "circadian function index (CFI)", "setting": "[3]; fixed dose vs baseline, p=0.016", "result": "increasing"}, {"measurement": "rhythm stability (inter-daily stability, IS)", "setting": "[3]; fixed dose vs baseline, p=0.026", "result": "increasing"}, {"measurement": "rhythm fragmentation (intra-daily variability, IV)", "setting": "[3]; fixed dose vs baseline, p=0.031", "result": "reducing"}, {"measurement": "circadian rhythm of skin temperature / markers of healthy circadian function", "setting": "[3]; fixed dose vs baseline", "result": "significant positive impact on the circadian rhythm of skin temperature; also recorded: improved all markers of healthy circadian function"}, {"measurement": "circadian rhythm of skin temperature / markers of healthy circadian function", "setting": "[3]; fixed dose vs baseline, listed as aminosterol", "result": "improved all markers of healthy circadian function"}, {"measurement": "circadian parameters during wash-out period", "setting": "[3]; wash-out vs baseline (IS, CFI), 12 patients", "result": "improvement persisted for several of these circadian parameters"}]}
